Values quoted from earlier work as cited in patent publication US8022220B2, “Process for production of piperidine derivatives” (Albany Molecular Research, Inc., priority 1995, dated 2011).

Tested on: delayed rectifier potassium current
Settings: concentrations up to 5 μM; isolated feline ventricular myocytes

CC(C)(C(=O)O)c1ccc(C(O)CCCN2CCC(C(O)(c3ccccc3)c3ccccc3)CC2)cc1 (stereo not drawn) [terfenadine carboxylic acid metabolite, 4-[4-[4-(hydroxydiphenylmethyl)-1-piperidinyl]-1-hydroxybutyl]-α-α-dimethylphenylacetic acid]
effect on the potassium current: no significant effect
